{"source": "patent US8952024B2", "about": "“Herbicidal pyrimidone derivatives” (E I du Pont de Nemours and Company, priority 2009, dated 2015)", "type_in_all_cases": "in vivo", "key": {"[1]": {"system": "barnyardgrass (Echinochloa crus-galli)", "experiment": "Test B flooded paddy test", "conditions": "for Plant response rating, Barnyardgrass: Flood (flooded paddy test), 13 to 15 days", "how_it_was_run": "(§1)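 Ratings are visual, 0–100 (100 = complete control), taken versus untreated controls 13 to 15 days after treatment in the greenhouse. Compound went straight into paddy water held 3 cm above soil, applied to 2-leaf-stage plants of four species.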"}, "rice (Oryza sativa)": {"system": "rice (Oryza sativa)", "experiment": "Test B flooded paddy test", "conditions": "for Plant response rating, Rice: Flood (flooded paddy test), 13 to 15 days", "how_it_was_run": "as §1"}, "[2]": {"system": "umbrella sedge (Cyperus difformis)", "experiment": "Test B flooded paddy test", "conditions": "for Plant response rating, Sedge, Umbrella: Flood (flooded paddy test), 13 to 15 days", "how_it_was_run": "as §1"}, "[3]": {"system": "ducksalad (Heteranthera limosa)", "experiment": "Test B flooded paddy test", "conditions": "for Plant response rating, Ducksalad: Flood (flooded paddy test), 13 to 15 days", "how_it_was_run": "as §1"}, "[4]": {"system": "sunflower (common oilseed sunflower, Helianthus annuus)", "experiment": "Test B pre-/postemergence plant response", "conditions": "Preemergence", "how_it_was_run": "(§2)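 Each species received compound formulated in non-phytotoxic solvent with surfactant, either at planting into a loam and sand blend or as a foliar spray once plants reached 2 to 18 cm in peat-based medium. Plants stayed in the greenhouse 13 to 15 days before visual evaluation against controls, scored 0 (no effect) to 100 (complete control).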"}, "[5]": {"system": "ragweed (common ragweed, Ambrosia elatior)", "experiment": "Test B pre-/postemergence plant response", "how_it_was_run": "as §2"}, "[6]": {"system": "galium (catchweed bedstraw, Galium aparine)", "experiment": "Test B pre-/postemergence plant response", "conditions": "Preemergence", "how_it_was_run": "as §2"}, "[7]": {"system": "nightshade (eastern black nightshade, Solanum ptycanthum)", "experiment": "Test B pre-/postemergence plant response", "conditions": "Preemergence", "how_it_was_run": "as §2"}, "[8]": {"system": "Italian ryegrass (Lolium multiflorum)", "experiment": "Test B pre-/postemergence plant response", "how_it_was_run": "as §2"}, "[9]": {"system": "giant foxtail (Setaria faberii)", "experiment": "Test B pre-/postemergence plant response", "how_it_was_run": "as §2"}, "[10]": {"system": "chickweed (Stellaria media)", "experiment": "Test B postemergence plant response", "conditions": "Postemergence", "how_it_was_run": "(§3)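 Plants at the 1- to 4-leaf stage (2 to 18 cm tall), grown in pots of peat moss/vermiculite medium with wetting agent and starter nutrients, received postemergence applications of test chemicals. After 13 to 15 days in a greenhouse, injury was rated visually against untreated controls on a 0 (no effect) to 100 (complete control) scale.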"}, "[11]": {"system": "windgrass (Apera spica-venti)", "experiment": "Test B postemergence plant response", "conditions": "Postemergence", "how_it_was_run": "as §3"}, "[12]": {"system": "canarygrass (Phalaris minor)", "experiment": "Test B postemergence plant response", "conditions": "Postemergence", "how_it_was_run": "as §3"}, "[13]": {"system": "winter barley (Hordeum vulgare)", "experiment": "Test B postemergence plant response", "conditions": "Postemergence", "how_it_was_run": "as §3"}, "[14]": {"system": "goosegrass (Eleusine indica)", "experiment": "Test B pre-/postemergence plant response", "conditions": "Preemergence, 62 g ai/ha; scale 0 to 100, 0 no effect, 100 complete control"}, "[15]": {"conditions": "250 g ai/ha, flooded paddy test, visual rating on 0 to 100 scale (0 no effect, 100 complete control) after 13 to 15 days"}, "[16]": {"conditions": "31 g ai/ha, scale of 0 to 100 where 0 is no effect and 100 is complete control"}, "[17]": {"conditions": "62 g ai/ha, scale 0 to 100, 0 is no effect, 100 is complete control"}, "[18]": {"conditions": "125 g ai/ha, scale 0 to 100, 0 is no effect, 100 is complete control"}, "[19]": {"conditions": "31 g ai/ha, scale 0 to 100 (0 no effect, 100 complete control)"}, "[20]": {"conditions": "62 g ai/ha, scale 0 to 100, 0 no effect, 100 complete control"}, "[21]": {"conditions": "250 g ai/ha, Preemergence, 0 to 100 scale"}, "[22]": {"conditions": "Postemergence, 31 g ai/ha, scale 0 to 100 (0 no effect, 100 complete control)"}, "[23]": {"conditions": "Postemergence, 62 g ai/ha, scale 0 (no effect) to 100 (complete control), 13 to 15 days"}, "[24]": {"conditions": "Postemergence, 125 g ai/ha, visual rating after 13 to 15 days, scale 0 (no effect) to 100 (complete control)"}, "[25]": {"conditions": "Postemergence, 250 g ai/ha, scale 0 to 100"}, "[26]": {"conditions": "Preemergence, 31 g ai/ha, scale 0 to 100 (0 no effect, 100 complete control)"}, "[27]": {"conditions": "Preemergence, 62 g ai/ha, scale 0 to 100, 0 no effect, 100 complete control"}, "[28]": {"conditions": "Preemergence, 125 g ai/ha, 0 to 100 scale"}, "[29]": {"conditions": "125 g ai/ha, visual rating after 13 to 15 days, scale 0 (no effect) to 100 (complete control)"}, "[30]": {"conditions": "62 g ai/ha, scale 0 (no effect) to 100 (complete control), 13 to 15 days"}}}
{"smiles": "O=C1CCCC([O-])=C1C(=O)c1cnc(-c2ccccc2)n(-c2ccccc2)c1=O.[K+]", "note": "[Compound 14]", "values": [{"measurement": "Plant response rating, Flood, Barnyardgrass", "setting": "[1]; [15]", "value": 0}, {"measurement": "Plant response rating, Barnyardgrass", "setting": "[1]; [16]", "value": 0}, {"measurement": "Plant response rating, Barnyardgrass", "setting": "[1]; [17]", "value": 0}, {"measurement": "Plant response rating, Barnyardgrass", "setting": "[1]; [18]", "value": 0}, {"measurement": "Plant response rating, Flood, Rice", "setting": "rice (Oryza sativa); [15]", "value": 0}, {"measurement": "Plant response rating, Rice", "setting": "rice (Oryza sativa); [16]", "value": 0}, {"measurement": "Plant response rating, Rice", "setting": "rice (Oryza sativa); [17]", "value": 0}, {"measurement": "Plant response rating, Rice", "setting": "rice (Oryza sativa); [18]", "value": 0}, {"measurement": "Plant response rating, Flood, Sedge, Umbrella", "setting": "[2]; [15]", "value": 40}, {"measurement": "Plant response rating, Sedge, Umbrella", "setting": "[2]; [16]", "value": 0}, {"measurement": "Plant response rating, Sedge, Umbrella", "setting": "[2]; [17]", "value": 0}, {"measurement": "Plant response rating, Sedge, Umbrella", "setting": "[2]; [18]", "value": 0}, {"measurement": "Plant response rating, Flood, Ducksalad", "setting": "[3]; [15]", "value": 40}, {"measurement": "Plant response rating, Ducksalad", "setting": "[3]; [16]", "value": 0}, {"measurement": "Plant response rating, Ducksalad", "setting": "[3]; [17]", "value": 20}, {"measurement": "Plant response rating, Ducksalad", "setting": "[3]; [18]", "value": 30}, {"measurement": "Plant response rating, Sunflower", "setting": "[4]; 250 g ai/ha, 0 to 100 scale", "value": 98}, {"measurement": "Plant response rating, Sunflower", "setting": "[4]; [19]", "value": 50}, {"measurement": "Plant response rating, Sunflower", "setting": "[4]; [20]", "value": 85}, {"measurement": "Sunflower plant response rating", "setting": "[4]; 125 g ai/ha, 0 to 100 scale", "value": 85}, {"measurement": "Plant response rating, Ragweed", "setting": "[5]; [21]", "value": 90}, {"measurement": "Plant response rating, Ragweed", "setting": "[5]; [22]", "value": 80}, {"measurement": "Plant response rating, Ragweed", "setting": "[5]; [23]", "value": 80}, {"measurement": "Plant response rating, Ragweed", "setting": "[5]; [24]", "value": 85}, {"measurement": "Ragweed plant response rating", "setting": "[5]; [25]", "value": 98}, {"measurement": "Plant response rating, Ragweed", "setting": "[5]; [26]", "value": 70}, {"measurement": "Plant response rating, Ragweed", "setting": "[5]; [27]", "value": 90}, {"measurement": "Ragweed plant response rating", "setting": "[5]; [28]", "value": 90}, {"measurement": "Plant response rating, Galium", "setting": "[6]; 250 g ai/ha, 0 to 100 scale", "value": 80}, {"measurement": "Plant response rating, Galium", "setting": "[6]; [19]", "value": 0}, {"measurement": "Plant response rating, Galium", "setting": "[6]; [20]", "value": 0}, {"measurement": "Galium plant response rating", "setting": "[6]; 125 g ai/ha, 0 to 100 scale", "value": 40}, {"measurement": "Plant response rating, Nightshade", "setting": "[7]; 250 g ai/ha, 0 to 100 scale", "value": 100}, {"measurement": "Plant response rating, Nightshade", "setting": "[7]; [19]", "value": 85}, {"measurement": "Plant response rating, Nightshade", "setting": "[7]; [20]", "value": 98}, {"measurement": "Nightshade plant response rating", "setting": "[7]; 125 g ai/ha, 0 to 100 scale", "value": 100}, {"measurement": "Plant response rating, Ryegrass, Italian", "setting": "[8]; [21]", "value": 0}, {"measurement": "Plant response rating, Ryegrass, Italian", "setting": "[8]; [22]", "value": 0}, {"measurement": "Plant response rating, Ryegrass, Italian", "setting": "[8]; [23]", "value": 5}, {"measurement": "Plant response rating, Ryegrass, Italian", "setting": "[8]; [24]", "value": 5}, {"measurement": "Ryegrass, Italian plant response rating", "setting": "[8]; [25]", "value": 50}, {"measurement": "Plant response rating, Ryegrass, Italian", "setting": "[8]; [26]", "value": 0}, {"measurement": "Plant response rating, Ryegrass, Italian", "setting": "[8]; [27]", "value": 0}, {"measurement": "Ryegrass, Italian plant response rating", "setting": "[8]; [28]", "value": 0}, {"measurement": "Plant response rating, Foxtail, Giant", "setting": "[9]; [21]", "value": 90}, {"measurement": "Plant response rating, Foxtail, Giant", "setting": "[9]; [22]", "value": 50}, {"measurement": "Plant response rating, Foxtail, Giant", "setting": "[9]; [23]", "value": 70}, {"measurement": "Plant response rating, Foxtail, Giant", "setting": "[9]; [24]", "value": 80}, {"measurement": "Foxtail, Giant plant response rating", "setting": "[9]; [25]", "value": 95}, {"measurement": "Plant response rating, Foxtail, Giant", "setting": "[9]; [26]", "value": 0}, {"measurement": "Plant response rating, Foxtail, Giant", "setting": "[9]; [27]", "value": 10}, {"measurement": "Foxtail, Giant plant response rating", "setting": "[9]; [28]", "value": 75}, {"measurement": "Plant response rating, Chickweed", "setting": "[10]; [29]", "value": 80}, {"measurement": "Chickweed plant response rating", "setting": "[10]; 250 g ai/ha, scale 0 to 100", "value": 80}, {"measurement": "Plant response rating, Windgrass", "setting": "[11]; [19]", "value": 5}, {"measurement": "Plant response rating, Windgrass", "setting": "[11]; [30]", "value": 30}, {"measurement": "Plant response rating, Windgrass", "setting": "[11]; [29]", "value": 30}, {"measurement": "Windgrass plant response rating", "setting": "[11]; 250 g ai/ha, scale 0 to 100", "value": 50}, {"measurement": "Plant response rating, Canarygrass", "setting": "[12]; [19]", "value": 10}, {"measurement": "Plant response rating, Canarygrass", "setting": "[12]; [30]", "value": 20}, {"measurement": "Plant response rating, Canarygrass", "setting": "[12]; [29]", "value": 20}, {"measurement": "Canarygrass plant response rating", "setting": "[12]; 250 g ai/ha, scale 0 to 100", "value": 50}, {"measurement": "Plant response rating, Barley", "setting": "[13]; [19]", "value": 0}, {"measurement": "Plant response rating, Barley", "setting": "[13]; [30]", "value": 0}, {"measurement": "Plant response rating, Barley", "setting": "[13]; 125 g ai/ha, scale 0 to 100 (0 no effect, 100 complete control), 13 to 15 days", "value": 5}, {"measurement": "Barley plant response rating", "setting": "[13]; 250 g ai/ha, scale 0 to 100", "value": 40}, {"measurement": "Plant response rating, Goosegrass", "setting": "[14]", "value": 85}]}
